Results on ten compounds are retold here after ChEMBL document CHEMBL1201862, “PubChem BioAssay data set” (2004).

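Following 48 hours of exposure in 96-well plates, responses at five concentrations were used to interpolate endpoints linearly. Here, GI50 denotes the concentration required for 50% inhibition of growth.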 Active and inactive are the calls of the source. No stated cut-off is given here; in the data, active = GI50 up to about 1.1 µM and inactive = higher. Bounds are passed on as bounds.

Holding throughout (assay): growth of human tumour cells (NCI), 48 h
Test [1] relates to HL-60.
The subject of test [2] is SN12C.
For test [3], the system named is NCI/ADR-RES.
Test [4] concerns HOP-92.
Test [5] concerns Malme-3M.
Test [6] deals with NCI-H460.
The test system of test [7] is KM12.
Test [8] concerns DU-145.
The subject of test [9] is SW-620.
Test [10] deals with RPMI-8226.
For test [11], the system named is SF-268.
The subject of test [12] is HT-29.
In test [13] the test system is MDA-MB-435.
Test [14] has as its system HOP-62.
Test [15] deals with LOX IMVI.
Test [16] relates to ACHN.
The test system of test [17] is SK-OV-3.
Test [18] relates to A549.
In test [19] the test system is UO-31.
Test [20] deals with OVCAR-4.

In the case of `COC(=O)C1=C(O)C(C(=O)OC)[C@]2(O)[C@H](C(=O)OC)[C@H]1C[C@@H](c1ccc(F)cc1)[C@H]2C(=O)OC` (stereo not given in full), the GI50 in test [1] is 2.92 µM (inactive); in [2], 3.63 µM (inactive); in [3] it was 4.98 µM (inactive); in [4], 27.3 µM (inactive); in test [5], 12.9 µM (inactive); in [6], 17.4 µM (inactive). Besides, the GI50 in [7] was 18.1 µM (inactive); in test [8], 14.8 µM (inactive); in test [9], 13.2 µM (inactive); in test [10], 16.2 µM (inactive); in [11], 23.7 µM (inactive); in test [12] it was 16.6 µM (inactive). For the same compound, the GI50 in test [13] is 5.43 µM (inactive); in test [14], 22.6 µM (inactive); in test [15] it was 18.4 µM (inactive); in test [16] it was 15.5 µM (inactive); in [17] it was 22.6 µM (inactive); in test [18] it was 19.3 µM (inactive). The GI50 in [19] is 14.1 µM (inactive); in test [20], 22.4 µM (inactive).

With `O=C1C(Br)=Cc2c(Cl)sc(Cl)c21`, the GI50 in test [1] is 1.87 µM (inactive); in [2] it was 5.51 µM (inactive); in [3], 8.65 µM (inactive); in [4] it was 2.84 µM (inactive); in test [5], 8.67 µM (inactive); in test [6], 18.3 µM (inactive). Also, the GI50 in test [7] was 6.5 µM (inactive); in [8], 5.42 µM (inactive); in [9], 2.19 µM (inactive); in [10] it was 0.668 µM (active); in test [11], 3.4 µM (inactive); in test [12] it was 4.58 µM (inactive). For the same compound, the GI50 in test [13] was 2.11 µM (inactive); in test [14], 7.45 µM (inactive); in test [15], 2.36 µM (inactive); in [16], 2.91 µM (inactive); in [17], 15.5 µM (inactive); in test [18], 24.6 µM (inactive). The GI50 is 2.82 µM (inactive) in test [19] and 2.74 µM (inactive) in test [20].

For the compound `NC(=O)SCCC(N)C(=O)O` (stereo not given), the GI50 in [1] is > 81.3 µM (inactive); in [2], > 100 µM (inactive); in test [3], > 100 µM (inactive); in test [4] it was > 100 µM (inactive); in [5] it was > 100 µM (inactive); in [6] it was > 100 µM (inactive). Also, the GI50 in test [7], in test [8], in test [9], in test [10], in [11] and in test [12] was > 100 µM (inactive) in each case. The GI50 in [13], in test [14], in test [15], in [16], in test [17] and in test [18] was > 100 µM (inactive) throughout. The GI50 in [19] and in test [20] was > 100 µM (inactive) throughout.

With `CCOC(=O)CCC(NC(=O)c1ccc(Nc2cnc3ccc(C(F)(F)F)cc3n2)cc1)C(=O)OCC` (stereo not given), the GI50 was > 100 µM (inactive) in test [1]; > 83.8 µM (inactive) in test [2]; 11 µM (inactive) in test [3]; 8.36 µM (inactive) in [4]; 41 µM (inactive) in test [5]; 8.02 µM (inactive) in [6]. Further, the GI50 in test [7] was 24.2 µM (inactive); in test [8], > 26 µM (inactive); in test [9], > 70.6 µM (inactive); in [10], > 22.4 µM (inactive); in test [11], 15 µM (inactive); in test [12], > 80.5 µM (inactive). Also, the GI50 was > 80.9 µM (inactive) in test [13]; 14.1 µM (inactive) in test [14]; 36.7 µM (inactive) in test [15]; 24.9 µM (inactive) in test [16]; 16.5 µM (inactive) in [17]; > 34.6 µM (inactive) in test [18]. The GI50 in test [19] is 45.5 µM (inactive); in test [20] it was 8.2 µM (inactive).

As for `COc1ccc(C2CC(c3ccc(NS(=O)(=O)c4cc([N+](=O)[O-])ccc4C)cc3)=NN2S(=O)(=O)c2cc([N+](=O)[O-])ccc2C)cc1` (stereo not given), the GI50 was 51.6 µM (inactive) in test [1]; 43.5 µM (inactive) in [2]; 40.8 µM (inactive) in [3]; 34.3 µM (inactive) in test [4]; 34.8 µM (inactive) in test [5]; 32.4 µM (inactive) in test [6]. Further, the GI50 was 46 µM (inactive) in test [7]; > 100 µM (inactive) in test [8]; 72.9 µM (inactive) in [9]; 23.6 µM (inactive) in test [10]; 22.8 µM (inactive) in test [11]; 50.4 µM (inactive) in test [12]. The GI50 was 46 µM (inactive) in test [13]; 80 µM (inactive) in test [14]; 68.1 µM (inactive) in [15]; 63.4 µM (inactive) in test [16]; 85.3 µM (inactive) in test [17]; 34.5 µM (inactive) in test [18]. The GI50 is 32.1 µM (inactive) in test [19] and 40 µM (inactive) in [20].

With `O=C(Nc1ccccc1)N1CCNC1=S`, the GI50 in test [1] was > 100 µM (inactive); in [2], > 100 µM (inactive); in [3] it was > 100 µM (inactive); in test [4], > 100 µM (inactive); in test [5], > 100 µM (inactive); in test [6] it was 57.9 µM (inactive). Further, the GI50 in test [7], in [8], in test [9], in test [10], in test [11] and in test [12] was > 100 µM (inactive) throughout. The GI50 in [13], in test [14], in test [15], in test [16], in test [17] and in test [18] was > 100 µM (inactive) in each case. The GI50 is 57.3 µM (inactive) in test [19] and 71.6 µM (inactive) in [20].

For `COC(=O)NC1C(C)OC(OC2C/C=C(/C)C3C=CC4C(OC5CC(OC6CC(O)C(OC7CC(O)C(OC)C(C)O7)C(C)O6)C(O)C(C)O5)C(C)CC(C)C4C3(C)C(=O)C3=C(O)C4(CC(C)C(CO)=CC4/C=C\2C)OC3=O)CC1(C)[N+](=O)[O-]` (stereo not given), the GI50 in test [1] is 4.51 µM (inactive); in test [2] it was 12.9 µM (inactive); in [3] it was 69.5 µM (inactive); in test [4], 5.45 µM (inactive); in test [5], 7.93 µM (inactive); in test [6] it was 12.3 µM (inactive). In addition, the GI50 was 14.5 µM (inactive) in test [7]; 11.6 µM (inactive) in [8]; 9.86 µM (inactive) in test [9]; 3.13 µM (inactive) in test [10]; 14.8 µM (inactive) in test [11]; 15.7 µM (inactive) in test [12]. Further, the GI50 in test [13] is 8.75 µM (inactive); in test [14] it was 15.4 µM (inactive); in test [15] it was 11.5 µM (inactive); in [16], 12.6 µM (inactive); in test [17], 12 µM (inactive); in test [18], 22.6 µM (inactive). Moreover, the results for the GI50 in [19] and in test [20] were 17.1 µM (inactive) and 3.48 µM (inactive), respectively.

On to `c1ccc(C(OCCN2CC3CCC(C2)N3)c2ccccc2)cc1`, for which the GI50 in [1] was 74.1 µM (inactive); in [2], > 100 µM (inactive); in test [3], > 100 µM (inactive); in test [4], 18.3 µM (inactive); in test [5] it was 16 µM (inactive); in [6], 50.4 µM (inactive). The GI50 in test [7] was 54 µM (inactive); in test [8], > 100 µM (inactive); in [9], 81.3 µM (inactive); in test [10], 34.1 µM (inactive); in test [11], > 100 µM (inactive); in test [12], 31.6 µM (inactive). Also, the GI50 in test [13] is 35.9 µM (inactive); in [14], > 100 µM (inactive); in test [15], 66.4 µM (inactive); in test [16], > 100 µM (inactive); in test [17] it was > 100 µM (inactive); in test [18], > 100 µM (inactive). The GI50 in [19] was 64 µM (inactive); in test [20] it was > 100 µM (inactive).

`O=S(=O)(c1cc(Cl)ccc1Cl)n1ccnc1`: the GI50 is 28.4 µM (inactive) in test [1]; 30.2 µM (inactive) in [2]; 20.2 µM (inactive) in test [3]; 39.9 µM (inactive) in [4]; 31.8 µM (inactive) in test [5]; 25.9 µM (inactive) in test [6]. Also, the GI50 in test [7] is 33.6 µM (inactive); in test [8], 35.4 µM (inactive); in test [9], 77.4 µM (inactive); in [10] it was 29 µM (inactive); in test [11], 45.1 µM (inactive); in test [12] it was 29.2 µM (inactive). The GI50 in test [13] is 18.2 µM (inactive); in test [14], 48 µM (inactive); in [15], 37.7 µM (inactive); in test [16], 76.7 µM (inactive); in test [17], > 100 µM (inactive); in test [18], 58.2 µM (inactive). For the same compound, the GI50 is 85.5 µM (inactive) in test [19] and 43 µM (inactive) in [20].

With `N=c1oc2ccc(Cl)cc2cc1C(=O)Nc1ccccc1`, the GI50 in test [1] is > 100 µM (inactive); in test [2] it was > 100 µM (inactive); in test [3], 17.3 µM (inactive); in test [4], 10.5 µM (inactive); in test [5], 6.5 µM (inactive); in test [6], > 100 µM (inactive). In addition, the GI50 in test [7] is 79.4 µM (inactive); in test [8] it was > 100 µM (inactive); in test [9] it was > 100 µM (inactive); in test [10], > 100 µM (inactive); in test [11] it was > 76 µM (inactive); in test [12] it was > 100 µM (inactive). Also, the GI50 was > 100 µM (inactive) in test [13]; 21.6 µM (inactive) in test [14]; > 100 µM (inactive) in [15]; 45.8 µM (inactive) in [16]; 23.3 µM (inactive) in [17]; > 100 µM (inactive) in [18]. Also, the GI50 in test [19] was > 47 µM (inactive); in [20], > 100 µM (inactive).
